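Step 1: Grow cells in 96-well plates. Step 2: Expose to compound for 48 hours at 5 concentrations. Step 3: Interpolate endpoints linearly; if unreached, use highest concentration. TGI denotes the concentration required for complete inhibition of growth.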 Where only a bound is given, the exact number is not on record here.

Experiment in all cases: growth of human tumour cells (NCI), 48 h
Assay [1] concerns CAKI-1 renal.
Assay [2] deals with DLD-1 colon.
Assay [3] has as its system DMS 114 small cell lung.
Assay [4] concerns KM20L2 colon.
Assay [5] relates to LXFL 529 NSCLC.
Assay [6] concerns M19-MEL melanoma.
Assay [7] has as its system NCI-H226 lung.
Assay [8] deals with RXF-631 renal.
The test system of assay [9] is SF-539 CNS.
The subject of assay [10] is SN12C renal.
Assay [11] concerns SNB-78 CNS.
In assay [12] the test system is XF 498 CNS.
Assay [13] relates to DMS 273 small cell lung.
The test system of assay [14] is HOP-18 NSCLC.
Assay [15] has as its system SR leukemia.

On to `C1=Cc2nc1c(-c1ccccc1)c1ccc([n-]1)c(-c1ccccc1)c1nc(c(-c3ccccc3)c3ccc([n-]3)c2-c2ccccc2)C=C1.[Zn+2]`, for which the TGI in [1], in [2], in [3], in assay [4], in assay [5] and in assay [6] was above 100 µM throughout. The TGI in assay [7], in assay [8], in assay [9], in assay [10], in [11] and in assay [12] was above 100 µM throughout.

As for `CC(C)C1=CC(=O)C(C)(C2=NC(C)(C)CO2)c2ccccc21` (configuration not stated), the TGI in [1], in assay [2], in assay [3], in assay [13], in assay [14] and in assay [4] was above 100 µM in each case. Besides, the TGI in [5], in assay [6], in assay [7], in assay [8], in assay [9] and in [10] was above 100 µM throughout. Further, the TGI in [15] and in assay [12] was above 100 µM throughout.

As to `c1ccc2c(NCCCCCCCCNc3cccc4ccccc34)cccc2c1`, the TGI is 35.8 µM in [1]; above 100 µM in assay [2]; 68.2 µM in assay [3]; 80.6 µM in [13]; 58.6 µM in assay [14]; above 100 µM in assay [4]. Also, the TGI was 38.1 µM in assay [5]; above 10 µM in [6]; above 100 µM in assay [7]; 34.5 µM in assay [8]; 72.2 µM in assay [9]; above 100 µM in [10]. The TGI in [11] and in [12] was above 100 µM each time.

Regarding `BrC12C3C4C5C(C(C43)C13OCCO3)C52` (configuration not stated), the TGI in assay [2], in [3], in [13], in [14], in assay [4] and in [5] was above 100 µM each time. Besides, the TGI in assay [6], in [8], in [9], in [11] and in [12] was above 100 µM throughout.

As for `CCCCC1(OC(=O)CCC(=O)O)CCC2(CCC(C)C(C/C=C(C)/C=C/C(O)C(C)/C=C/C(=O)O)O2)OC1CC/C(C)=C/C(=O)O` (configuration not stated), the TGI turned out to be 15.3 µM in [1]; 13.8 µM in [2]; 8.56 µM in assay [3]; 18.2 µM in assay [13]; 29.8 µM in assay [14]; 46.8 µM in assay [4]. Further, the TGI in assay [5] was 3.83 µM; in [6], 7.95 µM; in assay [7], 6.1 µM; in assay [8], 5.7 µM; in [9], 3.51 µM; in assay [10], 9.2 µM. The TGI is 7.75 µM in [11], above 48.7 µM in assay [15] and 4.66 µM in assay [12].

In the case of `O=C1OC(c2ccccc2)(c2ccccc2)CC1CN1CCOCC1` (configuration not stated), the TGI in assay [2] is 31.8 µM; in assay [3] it was 32.6 µM; in assay [13], above 100 µM; in assay [14], 27.7 µM; in assay [4], 36.6 µM; in [5] it was 26.9 µM. In addition, the TGI in [6] amounted to 31 µM; in assay [8], 43.8 µM; in assay [9], 32.6 µM; in [10], 25.1 µM; in assay [15] it was 8.43 µM.

Values taken from PubChem BioAssay (NCI).
